Reference: ChEMBL document CHEMBL6182852, “Discovery of ATP competitive PDHK1/2 dual inhibitors” (Bioorg Med Chem Lett, 2025)
pIC50: −log10 of the molar value.

Tests used:
[1] = Cytotoxicity against human PBMC cells
[2] = biological target: [Pyruvate dehydrogenase (acetyl-transferring)] kinase isozyme 2, mitochondrial (Homo sapiens, UniProt Q15119); assay: Inhibition of PDHK2 (unknown origin)
[3] = Inhibition of E1 PDHK (unknown origin) phosphorylation at S232 residues; design: species or system Homo sapiens
[4] = Inhibition of LPS-induced TNF release in human PBMC cells; type: functional, cell-based
[5] = biological target: [Pyruvate dehydrogenase (acetyl-transferring)] kinase isozyme 1, mitochondrial (Homo sapiens, UniProt Q15118); assay: Inhibition of PDHK1 (unknown origin) in presence of 0.5 uM ATP
[Pyruvate dehydrogenase (acetyl-transferring)] kinase isozyme 1, mitochondrial, sequence (Q15118 whole entry): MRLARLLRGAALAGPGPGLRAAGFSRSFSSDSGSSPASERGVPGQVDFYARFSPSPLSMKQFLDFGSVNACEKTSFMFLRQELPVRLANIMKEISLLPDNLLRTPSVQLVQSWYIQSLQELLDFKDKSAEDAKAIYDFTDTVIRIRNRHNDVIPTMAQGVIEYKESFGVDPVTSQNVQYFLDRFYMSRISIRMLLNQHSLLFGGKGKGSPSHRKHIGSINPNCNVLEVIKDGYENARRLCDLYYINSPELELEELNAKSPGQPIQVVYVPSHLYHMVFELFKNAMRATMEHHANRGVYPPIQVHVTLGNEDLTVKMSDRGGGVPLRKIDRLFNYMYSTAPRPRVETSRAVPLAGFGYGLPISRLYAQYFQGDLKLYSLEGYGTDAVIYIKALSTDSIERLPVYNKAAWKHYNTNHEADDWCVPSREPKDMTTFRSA

Row | Compound | pIC50 [2] | pIC50 [4] | pIC50 [5] | CC50 [1] [µM] | pIC50 [3]
1 | CCNc1cc(F)cc2c1[nH]c(=O)n2-c1c(C)cc(Oc2cccc(C(=O)O)c2)cc1Cl | 7.47 | 4.15 | – | > 100 | < 4.00
2 | CCNc1cc(F)cc2c1NC(=O)C2(CC)N1CCC[C@@H](NC(=O)C2CC3(C2)CN(C#N)C3)C1 (mixture of isomers) | 7.82 | 6.05 | – | > 100 | –
3 | CCNc1cc(F)cc2c1[nH]c(=O)n2-c1ccc(Oc2cccc(S(=O)(=O)F)c2)cc1 | 6.92 | 4.61 | – | > 100 | 5.28
4 | CSc1cc(-c2nccs2)n[nH]1 | – | – | < 4.00 | – | –

Now from value to compound, other results behind:

Row | pIC50 [2] | pIC50 [4] | pIC50 [5] | Compound | CC50 [1] [µM] | pIC50 [3]
5 | – | 5.35 | – | CCNc1cc(F)cc2c1NC(=O)C2(C)N1CCC[C@@H](Nc2ccc(C#N)nc2)C1 (mixture of isomers) | 56.9 | –
6 | – | 4.31 | – | CCNc1cc(F)cc2c1NC(=O)C2(C)N1CCCCC1 (racemic) | > 100 | –
7 | – | < 4.00 | – | CCNc1cc(F)cc2c1NC(=O)C2(C)N1CCC[C@@H](Nc2ccc(C(=O)O)c(Cl)c2)C1 (stereo partly drawn) | > 100 | –
